One molecule from publication PMC7955952 (Pharmacology Research & Perspectives, 2021) can be followed below.

This experiment deals with Focal adhesion kinase (FAK) (Homo sapiens, UniProt Q05397). The experiment in a line: biochemical.
Chain of Focal adhesion kinase (FAK) (Q05397 393-698): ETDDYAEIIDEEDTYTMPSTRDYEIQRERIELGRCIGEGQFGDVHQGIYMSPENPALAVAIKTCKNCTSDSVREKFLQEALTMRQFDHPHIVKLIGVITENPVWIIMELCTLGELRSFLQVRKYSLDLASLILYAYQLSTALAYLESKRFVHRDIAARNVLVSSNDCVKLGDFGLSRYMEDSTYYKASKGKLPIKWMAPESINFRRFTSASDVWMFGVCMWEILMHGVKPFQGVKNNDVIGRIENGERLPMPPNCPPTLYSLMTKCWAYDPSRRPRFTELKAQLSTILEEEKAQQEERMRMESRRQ

A word on the IC50: it is the point on the concentration scale where inhibition reaches its midpoint. Lower therefore signals inhibition by little substance. `CS(=O)(=O)c1cccc(CNc2nc(Nc3ccc4c(c3)CCC(=O)N4)ncc2C(F)(F)F)c1` [PF573228, 6‐[[4‐[(3‐methylsulfonylphenyl)methylamino]‐5‐(trifluoromethyl)pyrimidin‐2‐yl]amino]‐3,4‐dihydro‐1H‐quinolin‐2‐one] registered a 50% inhibitory concentration (IC50) of 9 ± 0.03 nM.
